Laboratory results published in PubChem BioAssay (NCI).
“And” between values parts separate entries of the source, which are not always exact repeats. Equal entries are not always repeated.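 Assay format: 96-well plates, 48-hour exposure. GI50 marks 50% less growth. TGI marks complete inhibition of growth.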

Tests used:
Assay in all cases: inhibition of tumour cell growth, NCI panel, 48 h
MDA-MB-435 = system: MDA-MB-435
T-47D breast = system: T-47D breast
MDA-N = system: MDA-N
DMS 114 small cell lung = system: DMS 114 small cell lung
DMS 273 small cell lung = system: DMS 273 small cell lung
M19-MEL melanoma = system: M19-MEL melanoma
XF 498 CNS = system: XF 498 CNS
HOP-18 NSCLC = system: HOP-18 NSCLC
RXF-631 renal = system: RXF-631 renal

SMILES: C=C1C(=O)O[C@H]2[C@H]1CC/C(COC(=O)c1ccc(Cl)nc1)=C\CC[C@@]1(C)O[C@@H]21
- GI50 (MDA-MB-435): 2140 nM
- TGI (MDA-MB-435): 6.81 µM
- GI50 (T-47D breast): 1.79 µM
- TGI (T-47D breast): 5.3 µM

SMILES: COc1cc2c3c(n(CCCN(C)C)c(=O)c2cc1OC)-c1ccccc1C3=O
- GI50 (MDA-MB-435): 19100 nM
- TGI (MDA-MB-435): > 100 µM
- GI50 (T-47D breast): 30.8 µM
- TGI (T-47D breast): > 100 µM

SMILES: Nc1nc(SN=Nc2ccc(S(N)(=O)=O)cc2)c2[nH]cnc2n1
- GI50 (MDA-MB-435): 390 nM
- TGI (MDA-MB-435): > 100 µM
- GI50 (T-47D breast): 0.536 µM
- TGI (T-47D breast): > 100 µM

SMILES: O=C(Nc1ccc(Br)cc1)c1ccc(Cl)c(Cl)c1
- GI50 (T-47D breast): 2 µM
- TGI (T-47D breast): > 27.9 µM

SMILES: Cc1cn2c(/C=C3\C(=O)N(C)c4ccc(O)cc43)c(C)nc2s1
- GI50 (MDA-MB-435): 1190 nM
- TGI (MDA-MB-435): 3.92 µM
- GI50 (T-47D breast): 4.48 µM
- TGI (T-47D breast): 64.5 µM

SMILES: COc1cc2c(c(OC)n1)[C@]1(O)[C@H](O)[C@H](CN(C)C)[C@@H](c3ccccc3)[C@]1(c1ccc(C#N)cc1)O2
- GI50 (MDA-MB-435): 16.3 nM and 14.3 nM
- TGI (MDA-MB-435): 1.06 µM and 8.13 µM
- GI50 (T-47D breast): < 0.01 µM
- TGI (T-47D breast): 3.81 µM and 2.33 µM

SMILES: CC1CCC(=O)C(C(=O)CC2CC(=O)NC(=O)C2)C1 (configuration not stated)
- TGI (MDA-MB-435): > 100 µM
- TGI (MDA-N): > 100 µM
- TGI (T-47D breast): > 100 µM

SMILES: COc1ccc2c(c1)C(C)Cc1c(ncnc1-n1c(C)nc3ccccc31)N2C (configuration not stated)
- GI50 (MDA-MB-435): 315 nM
- TGI (MDA-MB-435): 1.89 µM
- GI50 (T-47D breast): 6.5 µM
- TGI (T-47D breast): 49.9 µM

SMILES: Cc1cc(NS(=O)(=O)c2ccc(Nc3c4ccccc4nc4c(C(=O)NCCN(C)C)cccc34)cc2)no1
- TGI (DMS 114 small cell lung): 14 µM
- TGI (DMS 273 small cell lung): > 100 µM
- TGI (M19-MEL melanoma): > 100 µM
- TGI (XF 498 CNS): > 100 µM

SMILES: C[C@]12CC[C@H](O)C[C@H]1CC[C@@H]1[C@@H]2CC[C@]2(C)[C@@H](C3=CC(=O)OC3)CC[C@]12O
- TGI (MDA-MB-435): 1.02 µM
- TGI (MDA-N): 0.806 µM
- TGI (T-47D breast): 0.858 µM

SMILES: N#C/C(=C/N1CCN(C(=O)c2ccco2)C1=S)C(=O)c1ccccc1
- GI50 (MDA-MB-435): 11000 nM
- TGI (MDA-MB-435): 60.6 µM
- GI50 (T-47D breast): 7.16 µM
- TGI (T-47D breast): > 100 µM

SMILES: Cc1cc(S(=O)(=O)N/N=C(\Sc2cc(Cl)c(C)cc2S(N)(=O)=O)c2ccc(Cl)cc2)c(Cl)cc1Cl
- GI50 (MDA-MB-435): > 100000 nM
- TGI (MDA-MB-435): > 100 µM

SMILES: CC(C)CCCC(C)[C@H]1CCC2[C@H]3C(CC[C@@]21C)[C@@]1(C)CCC=C[C@]12C[C@@H]2[C@@H]3O (some centres not stated)
- TGI (DMS 114 small cell lung): > 100 µM
- TGI (DMS 273 small cell lung): > 100 µM
- TGI (HOP-18 NSCLC): > 100 µM
- TGI (RXF-631 renal): > 100 µM

SMILES: Nc1ccn(C2(CO)C=C(CO)C(O)C2O)c(=O)n1 (configuration not stated)
- TGI (DMS 114 small cell lung): > 25.8 µM
- TGI (DMS 273 small cell lung): > 25.8 µM
- TGI (HOP-18 NSCLC): > 25.8 µM
- TGI (M19-MEL melanoma): > 25.8 µM

SMILES: Cc1cc(I)cc(CN(C)CCCN2CCOCC2)c1O
- GI50 (MDA-MB-435): 26000 nM
- TGI (MDA-MB-435): > 100 µM
- GI50 (T-47D breast): 29.1 µM
- TGI (T-47D breast): > 100 µM

SMILES: COc1cccc(/C(COc2ccc3c(c2)oc(=O)c2cc(OC)ccc23)=N/O)c1
- GI50 (T-47D breast): 4.85 µM
- TGI (T-47D breast): > 100 µM

SMILES: COC(=O)OCC1OC(N2C(=O)NC(=O)C(Br)C2N=[N+]=[N-])CC1OC(=O)OC (configuration not stated)
- TGI (DMS 114 small cell lung): > 100 µM
- TGI (DMS 273 small cell lung): > 100 µM
- TGI (M19-MEL melanoma): > 100 µM
- TGI (XF 498 CNS): > 100 µM

SMILES: COc1cc2ccc3c4cc(OC)c(OC(C)C)cc4cnc3c2cc1OC
- TGI (DMS 114 small cell lung): > 100 µM
- TGI (HOP-18 NSCLC): > 100 µM
- TGI (M19-MEL melanoma): > 100 µM
- TGI (RXF-631 renal): > 100 µM

SMILES: O=[N+]([O-])c1ccc2c(c1)C(c1ccccc1Cl)=Nc1cn[nH]c1N2
- GI50 (MDA-MB-435): 15100 nM
- TGI (MDA-MB-435): > 25 µM
- GI50 (T-47D breast): 14 µM
- TGI (T-47D breast): > 25 µM

SMILES: CC(=O)O[C@H](C[C@H](C(C)C)N(C)C(=O)[C@@H](NC(=O)[C@H]1CCCCN1C)C(C)C)c1nc(C(=O)N[C@@H](Cc2ccccc2)C[C@H](C)C(=O)O)c(CCOCc2ccccc2)s1
- GI50 (MDA-MB-435): < 1 nM
- TGI (MDA-MB-435): < 0.001 µM
- GI50 (T-47D breast): < 0.001 µM
- TGI (T-47D breast): > 10 µM

SMILES: COC(=O)/C(C)=C/[N+](=O)[O-]
- TGI (DMS 114 small cell lung): 35.3 µM
- TGI (DMS 273 small cell lung): 34.6 µM
- TGI (HOP-18 NSCLC): 31.9 µM
- TGI (M19-MEL melanoma): 32.6 µM
- TGI (XF 498 CNS): 27.5 µM

SMILES: COc1ccc(C(=O)COc2cccc(/C=C3\Oc4ccc5ccccc5c4C3=O)c2)cc1
- GI50 (MDA-MB-435): 5240 nM
- TGI (MDA-MB-435): 20 µM
- GI50 (T-47D breast): 1.98 µM
- TGI (T-47D breast): 5.6 µM

SMILES: Cc1c(C2=C(Br)C(=O)N(C)C2=O)c(=O)n(C)c(=O)n1C
- TGI (MDA-MB-435): 58.6 µM
- TGI (MDA-N): 77.8 µM
- TGI (T-47D breast): 42.6 µM

SMILES: COc1cc(C2=C(c3cn(C)c4ccccc34)COC2=O)cc(OC)c1OC
- GI50 (MDA-MB-435): 24.4 nM
- TGI (MDA-MB-435): 0.0875 µM
- GI50 (T-47D breast): 0.0604 µM
- TGI (T-47D breast): 8.65 µM

SMILES: Nc1nc(CCl)nc(Nc2ccccc2)n1
- TGI (DMS 114 small cell lung): 36.5 µM
- TGI (DMS 273 small cell lung): 14 µM
- TGI (M19-MEL melanoma): 98.8 µM

SMILES: CCOC(=O)CNC(=O)c1ccccc1Nc1ccnc(C(F)(F)F)c1
- GI50 (MDA-MB-435): 36900 nM
- TGI (MDA-MB-435): > 100 µM
- GI50 (T-47D breast): 41.9 µM
- TGI (T-47D breast): > 100 µM

SMILES: CCC(C)(C)c1ccc(OCCCCCCN2CCNCC2)cc1
- GI50 (MDA-MB-435): 1540 nM
- TGI (MDA-MB-435): 3.09 µM
- GI50 (T-47D breast): 1.72 µM
- TGI (T-47D breast): 3.78 µM

SMILES: Cc1ccc(C2(O)CC(c3ccc([N+](=O)[O-])o3)=NN2C(=O)COc2ccc(Cl)cc2)cc1 (configuration not stated)
- TGI (DMS 114 small cell lung): 83.8 µM
- TGI (DMS 273 small cell lung): > 62.1 µM
- TGI (HOP-18 NSCLC): > 100 µM
- TGI (M19-MEL melanoma): 19.7 µM
- TGI (XF 498 CNS): 26.9 µM

SMILES: C=CCNC(=O)N(CCC)CCCCC(NC(C)=O)C(=O)NCc1ccccc1 (configuration not stated)
- TGI (DMS 114 small cell lung): > 100 µM
- TGI (DMS 273 small cell lung): > 100 µM
- TGI (HOP-18 NSCLC): > 100 µM
- TGI (M19-MEL melanoma): > 100 µM
- TGI (XF 498 CNS): > 100 µM

SMILES: N=C(N)SCc1cccc(-c2nc3ccccc3c(=O)o2)c1
- TGI (MDA-MB-435): > 100 µM
- TGI (MDA-N): > 100 µM
- TGI (T-47D breast): > 100 µM

SMILES: CN(C)C(=S)/N=c1\ss/c(=N\C(=S)N(C)C)n1-c1ccc(Cl)c(Cl)c1
- TGI (DMS 114 small cell lung): > 100 µM
- TGI (DMS 273 small cell lung): > 100 µM
- TGI (M19-MEL melanoma): > 100 µM

SMILES: COC(=O)/C(C#N)=C1\CCC(O)N1 (configuration not stated)
- TGI (DMS 114 small cell lung): > 100 µM
- TGI (DMS 273 small cell lung): > 100 µM
- TGI (HOP-18 NSCLC): > 100 µM
- TGI (M19-MEL melanoma): > 100 µM
- TGI (XF 498 CNS): > 100 µM

SMILES: O=c1[nH]cnc2cccc(Cl)c12
- TGI (MDA-N): > 100 µM
- TGI (T-47D breast): > 100 µM

SMILES: CCCCC1(CN2CCOCC2)S/C(=N/c2nc(CC(=O)OCC)cs2)NC1=O (configuration not stated)
- GI50 (MDA-MB-435): 30300 nM
- TGI (MDA-MB-435): > 100 µM
- GI50 (T-47D breast): 41.5 µM
- TGI (T-47D breast): > 100 µM

SMILES: COc1cc2cccc(N=Cc3cccc(OC)c3OC(C)C)c2cc1OC
- TGI (DMS 114 small cell lung): 38.7 µM
- TGI (M19-MEL melanoma): 48.2 µM
- TGI (XF 498 CNS): 55.4 µM

SMILES: CC(C)S(=O)(=O)c1ccccc1Nc1nc(Nc2cccc(NC(=O)CN)c2)ncc1Cl
- GI50 (MDA-MB-435): 553 nM
- TGI (MDA-MB-435): 2.16 µM
- GI50 (T-47D breast): 0.586 µM
- TGI (T-47D breast): 4.68 µM

SMILES: CN1NC(=Nc2ccccc2)Sc2c1cnn(-c1ccccc1)c2=O
- TGI (DMS 114 small cell lung): > 100 µM
- TGI (DMS 273 small cell lung): > 100 µM
- TGI (HOP-18 NSCLC): > 100 µM
- TGI (M19-MEL melanoma): > 100 µM
